Experimental data as given in ChEMBL document CHEMBL5223135, “Guanidine-based β amyloid precursor protein cleavage enzyme 1 (BACE-1) inhibitors for the Alzheimer's disease (AD): A review” (Bioorg Med Chem, 2022).

Key:
[1] = Permeability in human Caco-2 cells; format: ADME, cell-based; conditions: read-out: permeability
[2] = n-Octanol/water partition coefficient, logP of the compound; format: physicochemical
[3] = Aqueous solubility, logS of the compound; format: physicochemical; conditions: buffer

| Papp [1] | logP [2] | logS0 [3] | SMILES |
| --- | --- | --- | --- |
| 0.57 ×10⁻⁶ cm/s |  |  | Cn1c(N/N=C/c2cccc(Cl)c2Cl)nc2ccccc2c1=O |
| 0.53 ×10⁻⁶ cm/s |  |  | O=[N+]([O-])c1ccc(-n2cc(COc3ccc(/C=N/Nc4nnc(-c5ccccc5)c(-c5ccccc5)n4)cc3)nn2)cc1 |
| 0.53 ×10⁻⁶ cm/s |  |  | C(=N\Nc1nnc(-c2cccs2)c(-c2cccs2)n1)/c1cc2ccccc2[nH]1 |
|  | 1.76 | -2.73 | N=C(Nc1cnc(F)c(F)c1)Nc1cnc(F)c(F)c1 |
